# Measured values: article PMC3610419, “A Randomized, Double-Blind Placebo Controlled Trial of Balapiravir, a Polymerase Inhibitor, in Adult Dengue Patients” (The Journal of Infectious Diseases, 2012)
# Entries after “also recorded” stand apart in the source; their conditions may differ. Marks after values point to notes of the source that are not given here.
# Tests used:
# [1] = tested on: DENV; assay: Plasma viremia (RT-PCR) in adult dengue patients, randomized placebo-controlled trial; assay type: in vivo, human; details: for Median time to first viremia level of <1000 copies/mL (IQR): Kaplan-Meier estimate, inpatient period; for AUC viremia, Mean / AUC viremia, Median (IQR): hour 0 to hour 168
# Procedure: Plasma samples were collected for virological and immunological investigations every 12 hours, beginning immediately before commencement of treatment, during the next 6 study days and on one occasion on study day 7 and day 14 (virological markers) or day 7 and day 28 (immunological markers). Viremia was measured using a validated, internally controlled reverse-transcription polymerase chain reaction assay in a Good Clinical Laboratory Practice environment. The limit of detection was 357 copies/mL for DENV-1, 72 copies/mL for DENV-2, 357 copies/mL for DENV-3, and 720 copies/mL for DENV-4. The presence of NS1 in plasma was determined using the Platelia NS1 assay (Bio-Rad) and was performed according to the manufacturer's instructions. Plasma cytokine levels (interleukin 1β [IL-1β], IL-2, IL-4, IL-5, IL-6, IL-10, IL-12p70, IL-13, interferon γ [IFN-γ], and tumor necrosis factor α [TNF-α]) were measured using a Bio-Plex human cytokine assay (Bio-Rad) and a multiplex array reader (Luminex Systems, Bio-Plex workstation from Bio-Rad Laboratories) according to the manufacturer's instructions. Briefly, 50-μL plasma samples were incubated with monoclonal antibody coupled beads. Complexes were washed twice, then incubated with biotinylated detection antibodies and, finally, labeled with streptavidin-phycoerythrin prior to analysis. Cytokine concentrations in samples were calculated by use of recombinant cytokines as standards and software provided by the manufacturer (Bio-Plex Manager). All research samples (for pharmacology, virology, and immunology) were collected and processed in the laboratory within 1 hour of venupuncture. All virological and immunological measurements and analyses were performed by analysts who were blind to the treatment assignment
# Key viremia endpoints of the study were as follows: area under the log-transformed viremia curve (AUC) from first dose to the end of study day 7 (study hour 168), calculated on the basis of the trapezoidal rule with values below the limit of detection replaced by half of the detection limit; time to first viremia level of <1000 copies/mL until study day 7; and time to the first negative NS1 test result. Other predefined key endpoints included fever clearance time, defined as the time from the start of treatment to the start of the first 48-hour period during which axillary temperature remained <37.5°C; maximum hematocrit level; maximum percentage increase of hematocrit level from baseline; platelet count nadir; and lowest recorded quality of life score.
# Time to event endpoints were compared between treatment groups on the basis of Cox regression and continuous endpoints on the basis of linear regression. Analyses were adjusted for the predose value of the respective endpoint; viremia and NS1 endpoints were additionally adjusted for dengue serotype. For all endpoints, we report P values of a trend test for a dose-response relationship with treatment entered as a continuous variable with values 0 (placebo), 1 (low-dose), and 2 (high-dose) into the regression model.
# [2] = Safety and tolerability, adverse events in adult dengue patients; details: for safety and tolerability: 1500 mg or 3000 mg orally twice daily for 5 days, adult dengue patients
# Procedure: Randomization to treatment group was by computer-generated randomization sequencing in blocks of 2. Balapiravir was formulated in a 500-mg film-coated tablet. The placebo consisted of an identical looking tablet containing excipient only. All balapiravir and placebo tablets were provided by F. Hoffmann-La Roche. Patients in cohort 1 (n = 20) received 1500 mg of balapiravir or an identical placebo orally every 12 hours for 5 days (10 doses). The decision to dose escalate (to 3000 mg) was made after review of the partially unblinded group mean clinical and laboratory data acquired from patients in cohort 1. Patients in cohort 2 (n = 44) received 3000 mg of balapiravir or placebo orally twice a day for 5 days (10 doses).
# Eligible patients remained in clinic during a 7-day in-patient period then returned for follow-up visits on study days 14, 28, and 84. During the inpatient period, patient vital signs were assessed every 6 hours and routine laboratory investigations were performed daily or as clinically indicated. Safety and tolerability were monitored at regular intervals and included physical examinations, vital signs, electrocardiograms, clinical laboratory assessments, incidence of clinical adverse events, and concomitant medications. Any clinically significant abnormal laboratory test results were followed up until resolved or stabilized. A quality of life assessment, using a questionnaire and a visual analog scale, was implemented on study days 1, 3, 5, 7, 14, 28, and 84.
# [3] = High-dose (3000 mg twice a day, 5 days), n = 22
# [4] = Low-dose (1500 mg twice a day, 5 days), n = 10
# [5] = High dose (3000 mg twice a day, 5 days), n=22
# [6] = Low dose (1500 mg twice a day, 5 days), n=10
smiles,measurement,setting,value
CC(C)C(=O)OC[C@@]1(N=[N+]=[N-])O[C@@H](n2ccc(N)nc2=O)[C@H](OC(=O)C(C)C)[C@@H]1OC(=O)C(C)C [Balapiravir],"effect on virological markers (time to clearance of viremia, time to clearance of NS1 antigenemia, AUC)",[1]; 1500 mg or 3000 mg twice daily for 5 days versus placebo,did not measurably alter; also recorded: no measurable effect
same,Median time to first viremia level of <1000 copies/mL (IQR),[1]; [3],4 (3–5) d
same,"AUC viremia, Mean",[1]; [3],32.56 log10 copies/mL × d
same,"AUC viremia, Median (IQR)",[1]; [3],31.98 (27.60–34.98) log10 copies/mL × d
same,Median time to first viremia level of <1000 copies/mL (IQR),[1]; [4],"5 (4, NA) d"
same,"AUC viremia, Mean",[1]; [4],34.49 log10 copies/mL × d
same,"AUC viremia, Median (IQR)",[1]; [4],29.63 (27.41–39.86) log10 copies/mL × d
same,reported serious adverse events (SAEs),[2]; 1500 mg balapiravir arm,1
same,safety and tolerability,[2],safe and well-tolerated
same,safety and tolerability,[2]; listed as balapiravir,well tolerated
same,reported serious adverse events (SAEs),[2]; 3000 mg balapiravir arm,1
same,ABDOMINAL PAIN,[2]; [5],3 (13.64%) no.pt. (%)
same,ABNORMAL INR,[2]; [5],1 (4.55%) no.pt. (%)
same,ALTERATION OF TASTE,[2]; [5],0 (0%) no.pt. (%)
same,ANOREXIA,[2]; [5],1 (4.55%) no.pt. (%)
same,ANY EVENT - no (%) patients with at least one event,[2]; [5],19 (86.36%) no.pt. (%)
same,ANY EVENT - no of events,[2]; [5],65
same,BRUISING,[2]; [5],2 (9.09%) no.pt. (%)
same,COUGH,[2]; [5],4 (18.18%) no.pt. (%)
same,DECREASE OF FIBRINOGEN,[2]; [5],4 (18.18%) no.pt. (%)
same,DIARRHOEA,[2]; [5],8 (36.36%) no.pt. (%)
same,DYSPEPSIA,[2]; [5],1 (4.55%) no.pt. (%)
same,ELEVATED ALT,[2]; [5],0 (0%) no.pt. (%)
same,ELEVATED AST,[2]; [5],0 (0%) no.pt. (%)
same,EPISTAXIS,[2]; [5],0 (0%) no.pt. (%)
same,FLATULENCE,[2]; [5],0 (0%) no.pt. (%)
same,GUM BLEEDING,[2]; [5],6 (27.27%) no.pt. (%)
same,HEADACHE,[2]; [5],5 (22.73%) no.pt. (%)
same,HEMATEMESIS,[2]; [5],0 (0%) no.pt. (%)
same,HEMATURIA,[2]; [5],1 (4.55%) no.pt. (%)
same,HEMOPTYSIS,[2]; [5],0 (0%) no.pt. (%)
same,HYPOALBUMINEMIA,[2]; [5],1 (4.55%) no.pt. (%)
same,"ITCHY RASH ON CHEEK, AND FOREHEAD",[2]; [5],0 (0%) no.pt. (%)
same,NARROW PULSE PRESSURE,[2]; [5],0 (0%) no.pt. (%)
same,NAUSEA,[2]; [5],2 (9.09%) no.pt. (%)
same,PETECHIAE,[2]; [5],6 (27.27%) no.pt. (%)
same,PROLONGED APTT,[2]; [5],7 (31.82%) no.pt. (%)
same,PROTEINURIA,[2]; [5],0 (0%) no.pt. (%)
same,PRURITIS,[2]; [5],0 (0%) no.pt. (%)
same,RETINAL INJURY,[2]; [5],0 (0%) no.pt. (%)
same,SORE THROAT,[2]; [5],0 (0%) no.pt. (%)
same,VERTIGO,[2]; [5],0 (0%) no.pt. (%)
same,VOMIT,[2]; [5],2 (9.09%) no.pt. (%)
same,THROMBOCYTOPENIA,"[2]; High dose (3000 mg twice a day, 5 days), n=22, one patient in this group had a SAE",11 (50%) ^a no.pt. (%)
same,ABDOMINAL PAIN,[2]; [6],0 (0%) no.pt. (%)
same,ABNORMAL INR,[2]; [6],0 (0%) no.pt. (%)
same,ALTERATION OF TASTE,[2]; [6],0 (0%) no.pt. (%)
same,ANOREXIA,[2]; [6],2 (20%) no.pt. (%)
same,ANY EVENT - no (%) patients with at least one event,[2]; [6],8 (80%) no.pt. (%)
same,ANY EVENT - no of events,[2]; [6],30
same,BRUISING,[2]; [6],0 (0%) no.pt. (%)
same,COUGH,[2]; [6],0 (0%) no.pt. (%)
same,DECREASE OF FIBRINOGEN,[2]; [6],1 (10%) no.pt. (%)
same,DIARRHOEA,[2]; [6],4 (40%) no.pt. (%)
same,DYSPEPSIA,[2]; [6],1 (10%) no.pt. (%)
same,ELEVATED ALT,[2]; [6],0 (0%) no.pt. (%)
same,ELEVATED AST,[2]; [6],0 (0%) no.pt. (%)
same,EPISTAXIS,[2]; [6],0 (0%) no.pt. (%)
same,FLATULENCE,[2]; [6],0 (0%) no.pt. (%)
same,GUM BLEEDING,[2]; [6],0 (0%) no.pt. (%)
same,HEADACHE,[2]; [6],2 (20%) no.pt. (%)
same,HEMATEMESIS,[2]; [6],0 (0%) no.pt. (%)
same,HEMATURIA,[2]; [6],0 (0%) no.pt. (%)
same,HEMOPTYSIS,[2]; [6],0 (0%) no.pt. (%)
same,HYPOALBUMINEMIA,[2]; [6],1 (10%) no.pt. (%)
same,"ITCHY RASH ON CHEEK, AND FOREHEAD",[2]; [6],1 (10%) no.pt. (%)
same,NAUSEA,[2]; [6],0 (0%) no.pt. (%)
same,PETECHIAE,[2]; [6],4 (40%) no.pt. (%)
same,PROLONGED APTT,[2]; [6],2 (20%) no.pt. (%)
same,PROTEINURIA,[2]; [6],1 (10%) no.pt. (%)
same,PRURITIS,[2]; [6],1 (10%) no.pt. (%)
same,RETINAL INJURY,[2]; [6],0 (0%) no.pt. (%)
same,SORE THROAT,[2]; [6],0 (0%) no.pt. (%)
same,THROMBOCYTOPENIA,[2]; [6],4 (40%) no.pt. (%)
same,VERTIGO,[2]; [6],1 (10%) no.pt. (%)
same,VOMIT,[2]; [6],4 (40%) no.pt. (%)
same,NARROW PULSE PRESSURE,"[2]; Low dose (1500 mg twice a day, 5 days), n=10, one patient in this group had a SAE",1 (10%) ^a no.pt. (%)
